Laboratory results published in ChEMBL document CHEMBL2074414, “Molecular and functional characterization of organic cation/carnitine transporter family in mice” (J Biol Chem, 2000).

Assays:
[1] = molecular target: T1, Solute carrier family 22 member 21 (Mus musculus) (UniProt Q9WTN6); test: TP_TRANSPORTER: inhibition of carnitine in Octn3-HEK cells; type: functional, cell-based; settings: HEK293
T1 sequence (whole entry): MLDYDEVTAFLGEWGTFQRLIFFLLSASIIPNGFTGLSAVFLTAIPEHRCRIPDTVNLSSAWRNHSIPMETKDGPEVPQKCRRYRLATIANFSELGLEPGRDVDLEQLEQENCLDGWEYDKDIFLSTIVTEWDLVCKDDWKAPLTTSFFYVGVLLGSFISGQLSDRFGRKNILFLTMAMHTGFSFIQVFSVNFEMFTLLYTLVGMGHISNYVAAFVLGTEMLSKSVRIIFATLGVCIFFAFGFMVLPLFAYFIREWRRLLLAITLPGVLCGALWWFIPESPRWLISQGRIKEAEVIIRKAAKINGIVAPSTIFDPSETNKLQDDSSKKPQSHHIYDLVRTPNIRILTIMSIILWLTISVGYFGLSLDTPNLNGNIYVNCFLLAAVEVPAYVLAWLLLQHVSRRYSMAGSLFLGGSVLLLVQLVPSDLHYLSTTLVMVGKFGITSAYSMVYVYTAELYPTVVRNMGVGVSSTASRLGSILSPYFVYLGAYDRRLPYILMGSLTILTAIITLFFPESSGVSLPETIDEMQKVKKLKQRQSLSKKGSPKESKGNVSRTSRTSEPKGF

[2] = molecular target: T2, Octn2 (Organic cation/carnitine transporter 2) (Mus musculus, UniProt Q9Z0E8); test: TP_TRANSPORTER: inhibition of carnitine transport by Palmitoyl-carnitine at 5uM in Octn2-HEK cells; type: functional, cell-based, HEK293; set-up: scale not given: the % may be the effect or the level left; settings: human, probe carnitine, read-out: Activity
T2 sequence (Q9Z0E8 whole entry): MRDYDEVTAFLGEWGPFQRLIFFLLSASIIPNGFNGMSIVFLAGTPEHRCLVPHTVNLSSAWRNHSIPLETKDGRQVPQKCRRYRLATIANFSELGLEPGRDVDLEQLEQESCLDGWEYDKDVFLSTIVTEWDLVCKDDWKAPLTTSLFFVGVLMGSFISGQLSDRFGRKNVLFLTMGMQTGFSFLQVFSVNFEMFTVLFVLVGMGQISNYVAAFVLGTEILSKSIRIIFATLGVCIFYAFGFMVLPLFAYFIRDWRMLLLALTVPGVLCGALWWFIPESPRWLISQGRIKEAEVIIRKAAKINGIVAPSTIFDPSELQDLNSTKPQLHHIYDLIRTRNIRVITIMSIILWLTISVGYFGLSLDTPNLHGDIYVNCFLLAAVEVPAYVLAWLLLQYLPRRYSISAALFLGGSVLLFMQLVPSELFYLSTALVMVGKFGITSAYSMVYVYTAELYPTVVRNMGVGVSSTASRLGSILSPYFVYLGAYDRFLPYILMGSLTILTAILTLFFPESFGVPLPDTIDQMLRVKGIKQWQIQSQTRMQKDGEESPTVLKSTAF

[3] = molecular target: T2, Octn2 (Organic cation/carnitine transporter 2); test: in vitro; settings: human, Octn2-HEK cells, probe carnitine
[4] = molecular target: T3, Organic cation/carnitine transporter 2 (Mus musculus, UniProt Q9Z0E8); test: TP_TRANSPORTER: inhibition of carnitine uptake by Acetyl-L-carnitine at 5uM in Octn2-HEK cells; type: functional, cell-based; set-up: scale not given: the % may be the effect or the level left; settings: human, hek293, 5 µM
T3 sequence (Q9Z0E8 whole entry): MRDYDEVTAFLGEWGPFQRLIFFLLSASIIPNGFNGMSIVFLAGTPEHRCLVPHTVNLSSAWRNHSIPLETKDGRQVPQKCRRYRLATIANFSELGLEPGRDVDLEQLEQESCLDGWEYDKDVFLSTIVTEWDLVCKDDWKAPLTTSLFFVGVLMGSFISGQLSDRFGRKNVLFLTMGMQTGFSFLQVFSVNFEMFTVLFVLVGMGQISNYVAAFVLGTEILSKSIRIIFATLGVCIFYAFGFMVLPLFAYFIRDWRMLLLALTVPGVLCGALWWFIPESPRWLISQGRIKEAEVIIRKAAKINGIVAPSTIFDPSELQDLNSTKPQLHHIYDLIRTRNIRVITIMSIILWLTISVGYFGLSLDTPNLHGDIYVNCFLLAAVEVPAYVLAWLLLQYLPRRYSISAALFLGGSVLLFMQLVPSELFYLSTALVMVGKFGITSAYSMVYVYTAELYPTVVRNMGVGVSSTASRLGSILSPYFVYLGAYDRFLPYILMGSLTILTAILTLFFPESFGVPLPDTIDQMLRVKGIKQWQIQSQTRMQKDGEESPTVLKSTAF

[5] = molecular target: T1, Solute carrier family 22 member 21 (Mus musculus); test: TP_TRANSPORTER: inhibition of carnitine uptake by Acetyl-L-carnitine at 5uM in Octn3-HEK cells; type: functional, cell-based; set-up: scale not given: the % may be the effect or the level left; settings: HEK293
[6] = molecular target: T2, Octn2 (Organic cation/carnitine transporter 2); test: TP_TRANSPORTER: inhibition of carnitine uptake by Octanoyl-carnitine at 5uM in Octn2-HEK cells; type: functional, cell-based, HEK293; set-up: scale not given: the % may be the effect or the level left; settings: human, probe carnitine, read-out: Activity
[7] = molecular target: T1, Solute carrier family 22 member 21 (Mus musculus); test: TP_TRANSPORTER: inhibition of carnitine uptake by Octanoyl-carnitine at 5uM in Octn3-HEK cells; type: functional, cell-based; set-up: scale not given: the % may be the effect or the level left; settings: HEK293
[8] = molecular target: T3, Organic cation/carnitine transporter 2; test: TP_TRANSPORTER: inhibition of carnitine uptake by Glycine betaine at […] in Octn2-HEK cells; type: functional, cell-based; set-up: scale not given: the % may be the effect or the level left; settings: human, hek293
[9] = molecular target: T1, Solute carrier family 22 member 21 (Mus musculus); test: TP_TRANSPORTER: inhibition of carnitine uptake by Glycine betaine at 500uM in Octn3-HEK cells; type: functional, cell-based; set-up: scale not given: the % may be the effect or the level left; settings: HEK293
[10] = molecular target: T4, Solute carrier family 22 member 4 (Mus musculus, UniProt Q9Z306); test: TP_TRANSPORTER: uptake in Octn1-HEK cells; type: functional, cell-based; settings: human, hek293
T4 sequence (Q9Z306 whole entry): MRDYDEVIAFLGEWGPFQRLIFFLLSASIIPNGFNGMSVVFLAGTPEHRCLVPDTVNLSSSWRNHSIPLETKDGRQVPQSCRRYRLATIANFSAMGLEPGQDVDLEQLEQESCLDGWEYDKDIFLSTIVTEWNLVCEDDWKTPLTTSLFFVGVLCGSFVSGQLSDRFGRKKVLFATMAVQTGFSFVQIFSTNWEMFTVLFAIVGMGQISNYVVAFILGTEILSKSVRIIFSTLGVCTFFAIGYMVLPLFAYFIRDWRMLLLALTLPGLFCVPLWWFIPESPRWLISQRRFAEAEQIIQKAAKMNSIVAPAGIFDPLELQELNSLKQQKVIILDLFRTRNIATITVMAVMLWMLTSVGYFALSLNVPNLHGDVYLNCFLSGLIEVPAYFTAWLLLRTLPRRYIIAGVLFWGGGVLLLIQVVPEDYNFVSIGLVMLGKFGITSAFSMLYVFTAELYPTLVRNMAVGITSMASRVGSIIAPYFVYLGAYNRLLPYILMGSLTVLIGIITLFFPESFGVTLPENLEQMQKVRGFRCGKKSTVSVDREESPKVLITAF

[11] = molecular target: T3, Organic cation/carnitine transporter 2; test: TP_TRANSPORTER: inhibition of carnitine uptake by Butyryl-carnitine at 5uM in Octn2-HEK cells; type: functional, cell-based; set-up: scale not given: the % may be the effect or the level left; settings: human, hek293, 5 µM
[12] = molecular target: T1, Solute carrier family 22 member 21 (Mus musculus); test: TP_TRANSPORTER: inhibition of carnitine transport by Butyryl-carnitine at 5uM in Octn3-HEK cells; type: functional, cell-based; set-up: scale not given: the % may be the effect or the level left; settings: HEK293
[13] = molecular target: T2, Octn2 (Organic cation/carnitine transporter 2); test: TP_TRANSPORTER: inhibition of carnitine uptake by gamma-butyrobetaine at 5uM in Octn2-HEK cells; type: functional, cell-based, HEK293; set-up: scale not given: the % may be the effect or the level left; settings: human, probe carnitine, read-out: Activity
[14] = molecular target: T1, Solute carrier family 22 member 21 (Mus musculus); test: TP_TRANSPORTER: inhibition of carnitine transport by gamma-butyrobetaine at 5uM in Octn3-HEK cells; type: functional, cell-based; set-up: scale not given: the % may be the effect or the level left; settings: HEK293
[15] = substrate: CC[N+](CC)(CC)CC; test: cells, lysate or membranes named
[16] = substrate: C[N+](C)(C)CC(O)CC(=O)[O-]; test: TP_TRANSPORTER: uptake in Octn2-HEK cells; type: functional, cell-based, HEK293
[17] = substrate: C[N+](C)(C)CC(O)CC(=O)[O-]; test: TP_TRANSPORTER: uptake in Octn3-HEK cells; type: functional, cell-based; settings: HEK293

CCCCCCCCCCCCCCCC(=O)OC(CC(=O)[O-])C[N+](C)(C)C (stereo not drawn) [Palmitoyl-carnitine]
Activity [1]: 54 µM | activity at 5 µM [2]: 28%

C[N+](C)(C)CCO [CHOLINE]
activity at 500 µM [3]: 75%

CC(=O)O[C@H](CC(=O)[O-])C[N+](C)(C)C [ACETYLCARNITINE]
Activity [4]: 67% | Activity [5]: 21%

CCCCCCCC(=O)OC(CC(=O)O)C[N+](C)(C)C (stereo not drawn) [Octanoyl-carnitine]
activity at 5 µM [6]: 38% | Activity [7]: 15%

C[N+](C)(C)CC(=O)O [BETAINE]
Activity [8]: 56% | Activity [9]: 84%

C[N+](C)(C)CC(O)CC(=O)[O-] (stereo not drawn) [CARNITINE]
Activity [10]: substrate []

CCCC(=O)OC(CC(=O)[O-])C[N+](C)(C)C (stereo not drawn) [Butyryl-carnitine]
Activity [11]: 66% | Activity [12]: 13%

C[N+](C)(C)CCCC(=O)[O-]
activity at 5 µM [13]: 77% | Activity [14]: 11%

B1: Organic cation/carnitine transporter 2 (Mus musculus) (protein)
chain: MRDYDEVTAFLGEWGPFQRLIFFLLSASIIPNGFNGMSIVFLAGTPEHRCLVPHTVNLSSAWRNHSIPLETKDGRQVPQKCRRYRLATIANFSELGLEPGRDVDLEQLEQESCLDGWEYDKDVFLSTIVTEWDLVCKDDWKAPLTTSLFFVGVLMGSFISGQLSDRFGRKNVLFLTMGMQTGFSFLQVFSVNFEMFTVLFVLVGMGQISNYVAAFVLGTEILSKSIRIIFATLGVCIFYAFGFMVLPLFAYFIRDWRMLLLALTVPGVLCGALWWFIPESPRWLISQGRIKEAEVIIRKAAKINGIVAPSTIFDPSELQDLNSTKPQLHHIYDLIRTRNIRVITIMSIILWLTISVGYFGLSLDTPNLHGDIYVNCFLLAAVEVPAYVLAWLLLQYLPRRYSISAALFLGGSVLLFMQLVPSELFYLSTALVMVGKFGITSAYSMVYVYTAELYPTVVRNMGVGVSSTASRLGSILSPYFVYLGAYDRFLPYILMGSLTILTAILTLFFPESFGVPLPDTIDQMLRVKGIKQWQIQSQTRMQKDGEESPTVLKSTAF
Km [15]: 216 µM | Km [16]: 22 µM

B2: Solute carrier family 22 member 21 (Mus musculus), Q9WTN6 (protein)
chain: MLDYDEVTAFLGEWGTFQRLIFFLLSASIIPNGFTGLSAVFLTAIPEHRCRIPDTVNLSSAWRNHSIPMETKDGPEVPQKCRRYRLATIANFSELGLEPGRDVDLEQLEQENCLDGWEYDKDIFLSTIVTEWDLVCKDDWKAPLTTSFFYVGVLLGSFISGQLSDRFGRKNILFLTMAMHTGFSFIQVFSVNFEMFTLLYTLVGMGHISNYVAAFVLGTEMLSKSVRIIFATLGVCIFFAFGFMVLPLFAYFIREWRRLLLAITLPGVLCGALWWFIPESPRWLISQGRIKEAEVIIRKAAKINGIVAPSTIFDPSETNKLQDDSSKKPQSHHIYDLVRTPNIRILTIMSIILWLTISVGYFGLSLDTPNLNGNIYVNCFLLAAVEVPAYVLAWLLLQHVSRRYSMAGSLFLGGSVLLLVQLVPSDLHYLSTTLVMVGKFGITSAYSMVYVYTAELYPTVVRNMGVGVSSTASRLGSILSPYFVYLGAYDRRLPYILMGSLTILTAIITLFFPESSGVSLPETIDEMQKVKKLKQRQSLSKKGSPKESKGNVSRTSRTSEPKGF
Km [17]: 3 µM

B3: Solute carrier family 22 member 4 (Mus musculus) (protein)
chain: MRDYDEVIAFLGEWGPFQRLIFFLLSASIIPNGFNGMSVVFLAGTPEHRCLVPDTVNLSSSWRNHSIPLETKDGRQVPQSCRRYRLATIANFSAMGLEPGQDVDLEQLEQESCLDGWEYDKDIFLSTIVTEWNLVCEDDWKTPLTTSLFFVGVLCGSFVSGQLSDRFGRKKVLFATMAVQTGFSFVQIFSTNWEMFTVLFAIVGMGQISNYVVAFILGTEILSKSVRIIFSTLGVCTFFAIGYMVLPLFAYFIRDWRMLLLALTLPGLFCVPLWWFIPESPRWLISQRRFAEAEQIIQKAAKMNSIVAPAGIFDPLELQELNSLKQQKVIILDLFRTRNIATITVMAVMLWMLTSVGYFALSLNVPNLHGDVYLNCFLSGLIEVPAYFTAWLLLRTLPRRYIIAGVLFWGGGVLLLIQVVPEDYNFVSIGLVMLGKFGITSAFSMLYVFTAELYPTLVRNMAVGITSMASRVGSIIAPYFVYLGAYNRLLPYILMGSLTVLIGIITLFFPESFGVTLPENLEQMQKVRGFRCGKKSTVSVDREESPKVLITAF
Km [15]: 452 µM
